Tests used:
[1] = Oxygen and carbon dioxide partial pressures of the PFB before bubbling, after bubbling and after intrarectal administration; design: species or system mice; details: after oxygen bubbling vs before
C57BL6J mice = test: Intrarectal oxygenated perflubron in mice having respiratory failure, SpO2 monitor; format: in vivo; details: 15% hypoxic condition; 40 mL/kg into the rectum
Description: Experiment was carried out to administer oxygenated perflubron to mice having respiratory failure. PFB manufactured by OriGen Biomedical (Perflubron, product name: Liquivent) was oxygenated by oxygen bubbling. Male C57BL6J mice (male) ranging from 20 to 30 g were grouped into two groups: control group (physiological saline administration group); and I-EVA group (using oxygenated perflubron). The mice of the control group were each anesthetized by intraperitoneal administration of ketamine (80 to 100 mg/kg) and xylazine (10 mg/kg) and subjected to inhalation under 15% hypoxic condition, and, when SpO2 just exceeded 70%, perflubron was administered into the rectum at 40 mL/kg, and effects on respiratory failure were validated by using an SpO2 monitor.

LEWIS rats = test: Intrarectal oxygenated perfluorodecalin, blood gas (FIG. 9); format: in vivo; details: for blood oxygen partial pressure vs physiological saline: intrarectal 20 mL/kg
Description: As an experiment for reproduction, LEWIS rats (male) ranging from 250 to 350 g were grouped into three groups: control group; I-EVA group (using research-grade perfluorodecalin (PFD) from Wako Pure Chemical Industries, Ltd.); and I-EVA group (using clinical-grade perfluorodecalin from F2C). Perfluorodecalin bubbled with pure oxygen gas was administered into the rectum of each rat at 20 mL/kg, and 15 minutes and 120 minutes thereafter the arterial blood was collected under anesthesia and 21% oxygen inhalation, and the oxygen partial pressure was measured.
Next, C57BL6J mice ranging from 20 to 30 g were grouped into two group: control group (physiological saline administration group); and I-EVA group (using perfluorodecalin from F2C with oxygenation). The mice of the control group were each anesthetized by intraperitoneal administration of ketamine (80 to 100 mg/kg) and xylazine (10 mg/kg) and subjected to inhalation under 15% hypoxic condition, and, when SpO2 just exceeded 70%, oxygenated perfluorodecalin was administered into the rectum at 40 mL/kg, and effects on respiratory failure were validated by using an SpO2 monitor. After the completion of the experiment, the perfluorodecalin enterally administered was recovered, and the carbon dioxide concentration was measured to compare with that measured before the operation.

hypoxic pigs = test: Intrarectal oxygenated PFC in hypoxic pigs; format: in vivo; details: intrarectal administration
[2] = Oxygen partial pressure of PFC bubbled with pure oxygen; format: physicochemical
Description: (§1) With use of a liquid perfluorocarbon (PFC)^12-16, an intestinal gas ventilation (ILV) system was developed. Mice were randomly assigned to two groups: sham group (group 9, n=10); and intestinal gas ventilation group (group 12, n=12). For the intestinal gas ventilation (ILV), a PFC (octadecafluorodecahydronaphthalene, Wako Pure Chemical Industries, Ltd., Osaka, Japan) was bubbled with pure oxygen for 45 minutes to dissolve oxygen therein.
First, an O2-containing PFC was prepared (by O2 bubbling at 1 L/min over 45 minutes; FIG. 3A). For mice (groups 12, 18, 19; hereinafter, referred to as intestinal gas ventilation (ILV) groups), the liquid of PFC was then infused into the intestinal tract (i.e., the rectum) in a total volume of 1 mL/mouse. The average oxygen pressure in the PFC after O2 bubbling for 45 minutes was 438±19.9 mmHg (n=3, FIG. 4E). Effects on the treated mice were evaluated by mobility assay. In summary, the walking distances of the mice were calculated to find statistical increase for the group with O2—PFC liquid infusion therapy after inhalation of hypoxic gas (the ILV group with administration of the O2-containing PFC) as compared with the control group (FiO2 0.10, control group, 0.408±1.02 cm per 20 seconds; FiO2 0.10, treated group, 3.34±4.05 cm, p<0.0001, FIG. 3B).

[3] = Systemic toxicity after six cycles of administration of PFD, analysis of serum; format: in vivo; details: for ALP / AST / Albumin / CK / Calcium / Chloride / Creatinine / Erythrocytes / Glucose / Hematocrit / Hemoglobin / Leukocytes / Platelets / Pottasium / Sodium / Total cholesterol / Tri-glyceride / Urea nitrogen / ALT: 6 doses (time/day), blood collection Day 2; for ALT: *p < 0.05
Description: (§2) The blood PDF concentration 0.5 hours, 2 hours, and 24 hours after administration of perfluorodecalin (PFD) was measured by GC/MS/MS at times (n=6). […] Systemic toxicity after six cycles of administration of PDF was examined.

mice = test: Oral administration of PFD subjected to oxygen bubbling, left ventricular blood gas; format: in vivo
Description: PFD subjected to oxygen bubbling was administered to mice through oral administration, and the effects on blood oxygen partial pressure and carbon dioxide partial pressure were examined. As a negative control, a mouse group with oral administration of physiological saline ([…]; n=3) was used. […] In the negative control group, in contrast to that, there were smaller amounts of contents in the intestinal tract than in the bubbled-PFD oral administration group (FIG. 14A). An attempt was made to recover contents by inserting a syringe into the intestinal tract. In the attempt, transparent liquid suspected to be PFD was successfully recovered in the syringe for the bubbled-PFD oral administration group (FIG. 14B). For the negative control group, by contrast, such liquid was not recovered, and nothing recovered was left in the syringe. […] One hour after administration, tracheostomy was performed, and ventilation was performed with room air under management with a ventilator. Thoracotomy was performed and blood was collected from the heart, and the oxygen partial pressure and carbon dioxide partial pressure in the blood obtained were measured by iSTAT.

C57BL/6J mice [4] = test: Behavior analysis (walking distance) of ILV-treated hypoxic mice; format: in vivo; details: per 20 seconds; FiO2 0.10; 120 minutes after injection to the intestinal tract
Description: Behavioral improvement in ILV-treated hypoxic mice was analyzed. The mobilities of mice were monitored for a set of two parameters from a fitted ellipse (centroidal positions (x, y)). With use of these parameters, walking distance was calculated every 20 seconds for mice of a control group and a treated group (both n=3). […] For the treated group, an O2-labeled perfluorocarbon was used as described above, and inhalation of hypoxic gas (FiO2 0.10) was performed 120 minutes after the injection to the intestinal tract (FIG. 4A).

[5] = Blood PFD concentration by GC/MS/MS; format: in vivo; details: 0.5 hours, 2 hours, and 24 hours after administration, n=6
Description: as §2

[6] = test system: acute respiratory distress syndrome (ARDS) pig model; test: Intrarectal oxygenated PFC in acute respiratory distress syndrome (ARDS) pig model; format: in vivo; details: ARDS pigs
Description: Furthermore, an acute respiratory distress syndrome (ARDS) pig model was produced, and improvement of oxygen partial pressure by intrarectal administration of oxygenated PFC was examined. First, micromini pigs and pork pigs (female) were used to produce an ARDS model. Physiological saline was directly administered into the airway at 40 mL/kg. […] Histological examination of lung tissue confirmed impairment of alveolar walls such as the formation of hyaline membranes, the formation of residual protein layers in alveolar spaces, and septal hypertrophy. […] Then, the thus-produced ARDS pigs were each subjected to laparotomy by median incision, and a drain for administration of perfluorodecalin was placed at a depth of 40 cm from the anus, and an […] DennisTM Colorectal Tube for recovery of perfluorodecalin was placed in the anus side.

C57BL/6J mice [7] = test: Intestinal liquid ventilation (ILV) with oxygenated PFC, oxygen partial pressure in inferior vena cava; format: in vivo; details: 120 min after 1 mL PFC via the intestinal tract
Description: as §1

C57BL/6J mice [8] = test: ILV in respiratory failure model, oxygen partial pressure in left ventricle (FiO2 0.10); format: in vivo
Description: In ILV experiment, mice were randomly assigned to two groups: sham group (group 13, n=4); and ILV groups (group 18, n=4; group 19, n=4). The PFC was given to each mouse via the intestinal tract in the above-described manner, and 60 minutes and 120 minutes thereafter the oxygen partial pressure in the left ventricle of the heart under inhalation of hypoxic gas was analyzed (FiO2 0.10, inhalation time: 10 minutes).

[9] = 120 minutes after administration
[10] = oral 250 μL/mouse, heart blood one hour after administration, room air ventilation

FC(F)(F)C(F)(F)C(F)(F)C(F)(F)C(F)(F)C(F)(F)C(F)(F)C(F)(F)Br [PFB, 1-bromo-heptadecafluorooctane]
oxygen partial pressure of the PFB [1]: enhanced oxygen partial pressure
SpO2 (C57BL6J mice): significant recovery of SpO2

FC1(F)C(F)(F)C(F)(F)C2(F)C(F)(F)C(F)(F)C(F)(F)C(F)(F)C2(F)C1(F)F (stereo not shown) [PFD, octadecafluorodecahydronaphthalene]
blood carbon dioxide partial pressure vs physiological saline (LEWIS rats; [9]): significantly decreasing blood carbon dioxide partial pressure
blood oxygen partial pressure vs physiological saline (LEWIS rats; 15 minutes after administration): enhancing blood oxygen partial pressure
blood oxygen partial pressure vs physiological saline (LEWIS rats; [9]): enhancing blood oxygen partial pressure
blood oxygen partial pressure (hypoxic pigs): improvement in blood oxygen partial pressure
carbon dioxide partial pressure (hypoxic pigs): decrease in carbon dioxide partial pressure
oxygen saturation (hypoxic pigs): improved the oxygen saturation
average oxygen pressure in the PFC ([2]; after O2 bubbling for 45 minutes (1 L/min), n=3): 438±19.9 mmHg
average pressure of oxygen in the perfluorocarbon ([2]; bubbled with pure oxygen, after 120 minutes): 438±19.9 mmHg
ALP ([3]; PFD dose volume 1 ml/head): 470 ± 112 U/L
AST ([3]; PFD dose volume 1 ml/head): 68 ± 2 U/L
Albumin ([3]; PFD dose volume 1 ml/head): 2.6 ± 0.1 g/dL
CK ([3]; PFD dose volume 1 ml/head): 170 ± 22 U/L
Calcium ([3]; PFD dose volume 1 ml/head): 10.1 ± 0.1 mg/dL
Chloride ([3]; PFD dose volume 1 ml/head): 103 ± 1 mmol/L
Creatinine ([3]; PFD dose volume 1 ml/head): 0.2 mg/dL
Erythrocytes ([3]; PFD dose volume 1 ml/head): 752 ± 24 ×10^4/μl
Glucose ([3]; PFD dose volume 1 ml/head): 123 ± 22 mg/dL
Hematocrit ([3]; PFD dose volume 1 ml/head): 45.0 ± 1.1%
Hemoglobin ([3]; PFD dose volume 1 ml/head): 15.1 ± 0.7 g/dL
Leukocytes ([3]; PFD dose volume 1 ml/head): 102 ± 18 10^2/μL
Platelets ([3]; PFD dose volume 1 ml/head): 112 ± 11.5 10^4/µL
Pottasium ([3]; PFD dose volume 1 ml/head): 3.6 ± 0.2 mmol/L
Sodium ([3]; PFD dose volume 1 ml/head): 143 mmol/L
Total cholesterol ([3]; PFD dose volume 1 ml/head): 75 ± 20 mg/dL
Tri-glyceride ([3]; PFD dose volume 1 ml/head): 21 ± 7 mg/dL
Urea nitrogen ([3]; PFD dose volume 1 ml/head): 14 ± 2 mg/dL
ALT ([3]; PFD dose volume 1 ml/head): 24 ± 3* U/L
ALP ([3]; PFD dose volume 1.5 ml/head): 540 ± 64 U/L
AST ([3]; PFD dose volume 1.5 ml/head): 72 ± 5 U/L
Albumin ([3]; PFD dose volume 1.5 ml/head): 2.6 ± 0.1 g/dL
CK ([3]; PFD dose volume 1.5 ml/head): 196 ± 12 U/L
Calcium ([3]; PFD dose volume 1.5 ml/head): 9.9 ± 0.3 mg/dL
Chloride ([3]; PFD dose volume 1.5 ml/head): 105 ± 1 mmol/L
Creatinine ([3]; PFD dose volume 1.5 ml/head): 0.3 ± 0.1 mg/dL
Erythrocytes ([3]; PFD dose volume 1.5 ml/head): 791 ± 24 ×10^4/μl
Glucose ([3]; PFD dose volume 1.5 ml/head): 123 ± 18 mg/dL
Hematocrit ([3]; PFD dose volume 1.5 ml/head): 45.6 ± 1.4%
Hemoglobin ([3]; PFD dose volume 1.5 ml/head): 15.2 ± 0.6 g/dL
Leukocytes ([3]; PFD dose volume 1.5 ml/head): 88 ± 5 10^2/μL
Platelets ([3]; PFD dose volume 1.5 ml/head): 124 ± 20.1 10^4/µL
Pottasium ([3]; PFD dose volume 1.5 ml/head): 3.6 ± 0.2 mmol/L
Sodium ([3]; PFD dose volume 1.5 ml/head): 143 ± 1 mmol/L
Total cholesterol ([3]; PFD dose volume 1.5 ml/head): 71 ± 22 mg/dL
Tri-glyceride ([3]; PFD dose volume 1.5 ml/head): 20 ± 4 mg/dL
Urea nitrogen ([3]; PFD dose volume 1.5 ml/head): 14 ± 2 mg/dL
ALT ([3]; PFD dose volume 1.5 ml/head): 25 ± 1* U/L
toxicity due to intrarectal administration ([3]; six cycles of administration, serum analysis): no particular toxicity
gastrointestinal transit after oral administration (mice; oral 250 μL/mouse to the stomach by probe): passed through the stomach and arrived at the intestine
blood carbon dioxide partial pressure vs negative control group (mice; [10]): tendency to exhibit decreased blood carbon dioxide partial pressure
blood oxygen partial pressure vs negative control group (mice; [10]): tendency to exhibit increased blood oxygen partial pressure
walking distance (C57BL/6J mice [4]): 3.34±4.05 cm
blood PFD concentration (detection limit) [5]: < 1 µg/mL
acidosis [6]: did not exhibit marked acidosis
oxygen partial pressure, improvement ([6]; oxygenated perfluorodecalin repeatedly at 20 mL/kg intrarectal): about 300 mmHg
oxygen partial pressure in the inferior vena cava, pressure difference ILV group vs control group (C57BL/6J mice [7]): 9.40±3.65 mmHg
ratio of arterial oxygen partial pressure between the control group and the treated group (C57BL/6J mice [8]; FiO2 0.10): approximately 1.6
ventricular (arterial) oxygen partial pressure, PaO2 (C57BL/6J mice [8]; ILV group, hypoxic environment (FiO2 0.10)): 63.8±5.59 mmHg
oxygen partial pressure in the left ventricle of the heart vs control group (C57BL/6J mice [8]; hypoxic environment (FiO2 0.10), 60 minutes after ILV): significantly higher
oxygen partial pressure in the left ventricle of the heart, pressure difference ILV group vs control group (C57BL/6J mice [8]; hypoxic environment (FiO2 0.10), after 120 minutes): 23.8±3.11 mmHg

— patent US20230191096A1, “PHARMACEUTICAL COMPOSITION FOR USE IN TREATING SUBJECT IN HYPOXIC STATE DUE TO RESPIRATORY FAILURE, ETC” (National University Corporation Tokyo Medical and Dental …, priority 2020, published 2023)
